In patent US3985878A, “Anti-inflammatory and antirheumatic compounds and preparation” (priority 1974, dated 1976):

Assays:
[1] = Pellets-induced granuloma test (cotton pellets); assay type: in vivo, rat; settings: rat
Method: 1b. Pellets-induced granuloma test:
Another important test for the evaluation of an anti-inflammatory is that of cotton pellets. This consists of planting a sterile cotton pellet under the rat's back skin.
This pellet is left in situ for a week while the animals are treated daily with various doses of the drug being examined. Evaluation is effected by weighing the pellets taken at the given time and dried, comparing the weight of those of the treated animals with the checks.

[2] = test system: fibroblast culture; experiment: Production of mucopolysaccharides from fibroblast culture in vitro; assay type: cell-based; settings: in vitro culture of collagen tissue
Method: a. Tests in vitro: These tests consist of the cultivation in vitro, i.e., outside the organism, of tissue of the same embriological origin in relation to the osteoarticular. Upon the growth of this tissue there is then measured the activities of the various drugs. The units of measurement of these activities is the production of glucosaminoglicanes (mucopolysaccharides measured by the turbidimetric method).
The compounds which form the subject of this invention were evaluated according to this test and compared with known anti-inflammatories.

[3] = Osteolathyrism in the rabbit (aminoacetonitrile); assay type: in vivo; settings: rabbit
Method: B. Tests in vivo: Osteolathyrism in the rabbit.
Osteolathrism consists of inducing into young rabbits a dystrophy of the bone joint system, administering every day aminoacetonitrile by i.p. means, in the quantity of 100 mg/kg of body weight. With this treatment, in about 30 days, the following changes are shown in the rabbit:
Loss of weight (related to the checks physiologically treated), ptosis of the auricular pavilion, loss of fur, deformation of the front and rear limbs, deterioration of the general condition.
All this takes place because the aminoacetonitrile is a collagen tissue poison which changes the biochemical composition of the joint cartilages and the bones.
An evaluation of the therapeutic activity can be made either by biochemical evaluation, i.e. by measuring the quantity of aminosugars in these tissues, or by considering only the general symptoms, which are proportional to the diminution of the aminosugars.
In Table 5 this latter evaluation is reported, in which every symptom was evaluated by allotting it a number from 0 to 4, 4 indicating the maximum amount of damage and 0 indicating no damage.
On Table 5 there are given the results of treatment evaluated on the 25th day, comparing the groups treated only with a physiological solution, only with aminoacetonitrile, with aminoacetonitrile and CR 604, with aminoacetonitrile and Indometacin in the prescribed doses.
Each group consisted of 8 animals.

[4] = Irritant and ulceroid (gastrolesive) activity on the gastric mucosa; settings: rat, in vivo, po
Method: 4. Irritant and ulceroid activity on the gastric mucosa
The experimental evaluation of this activity was made on rats, by the method here reported:
The compound is administered orally to rats which have fasted for 12 hours, the animals being killed 4 hours after the administration.
Regarded as positive, i.e. with stomach damage, are those animals which have at least one haemorrhage point on the stomach wall.
By ED50 there is meant that dose of the drug which can […] in 50% of the animals treated, the formation of these haemorrhages.
In Table 6 there are compared CR 604 and Indometacin, since the latter is, amongst them all, the nearest to the anti-inflammatory activity values of CR 604.

[5] = Tolerance in animals, subacute and chronic; assay type: in vivo; settings: up to 6 months administration to animals, quantities greater than those recommended for human beings
From the text: For these substances, and particularly for CR 604, tolerance tests were made, subacute and chronic, by up to 6 months administration to the animals.

[6] = test system: uropepsinogene; assay type: in vivo, human; settings: in vivo
Method: (§1) Thus for example comparing CR 604 administered in capsules of 75 mg (6 per day), with Indometacin in capsules of 25 mg (6 per day), i.e. in approximately equimolecular doses on a group of 60 subjects treated (30 with CR 604 and 30 with Indometacin, one notes that (see Table 7):
Gastric secretion of pepsin is increased by agents which irritate and damage the gastric mucosa.

[7] = test system: urinary calcium; assay type: in vivo, human; settings: in vivo
Method: as §1
c. […] Excretion of calcium is related to the destruction of the fibrils of the proteic bone matrix which thus also loses the calcium deposited upon it.
The administration of known anti-inflammatories brings about the lysis of these fibrils with loss of calcium.

With CCCN(CCC)C(=O)C(CCC(=O)OCCCN1CCN(CCOC(=O)Cc2c(C)n(C(=O)c3ccc(Cl)cc3)c3ccc(OC)cc23)CC1)NC(=O)c1ccccc1 (racemic) [CR 604, N'-2-[1-(p-chlorobenzoyl)-5-methoxy-2-methyl-3-indoleacetoxy]ethyl-N-3-(N-benzoyl-N', N'-di-n-propyl-DL-isoglutaminoyl)-oxypropyl-piperazine] the “anti-inflammatory activity (granuloma test), in words” value [1] was “high anti-inflammatory activity”, the “effect on growth and production of mucopolysaccharides, in words” value [2] was “does not harm” and the “effect on aminoacetonitrile symptoms, in words” value [3] was “greatly modifies these toxic symptoms”. The “gastrolesive dose, in words” value [4] was “so high as to be of no practical importance, being roughly equal to a fatal dose”, the “tolerance, subacute and chronic” value [5] was “well tolerated without any special anatomical or functional lesion” and the “uropepsinogene in urine, in words” value [6] was “diminishes in the urine”. For the same compound, the “destruction (lysis) of fibrils of proteic bone matrix, in words” value [7] was “does not induce this destruction or reduces it” and the “excretion of urinary calcium, in words” value [7] was “reduction in the excretion of urinary calcium”.
